In the assay the target is T1, full length AKT1 (Homo sapiens, UniProt P31749).
T1 construct: His tag (from vector pFastBacHTb) (N); made in house; host or cells: baculovirus; Sf9 / T. ni insect cells
T1 sequence (P31749 whole entry): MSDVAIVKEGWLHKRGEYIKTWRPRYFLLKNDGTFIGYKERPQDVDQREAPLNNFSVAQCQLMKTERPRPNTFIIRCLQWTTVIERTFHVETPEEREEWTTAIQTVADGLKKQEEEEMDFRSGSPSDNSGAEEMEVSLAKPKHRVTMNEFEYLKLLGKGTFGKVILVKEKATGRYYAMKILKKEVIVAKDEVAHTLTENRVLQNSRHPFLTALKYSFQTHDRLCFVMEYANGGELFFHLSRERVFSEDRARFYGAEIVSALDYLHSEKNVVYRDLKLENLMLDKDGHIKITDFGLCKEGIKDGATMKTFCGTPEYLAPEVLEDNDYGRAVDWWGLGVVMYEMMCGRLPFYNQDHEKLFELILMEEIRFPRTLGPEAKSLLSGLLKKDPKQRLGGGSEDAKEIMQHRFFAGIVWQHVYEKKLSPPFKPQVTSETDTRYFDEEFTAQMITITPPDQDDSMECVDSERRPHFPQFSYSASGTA
Put plainly: AKT enzyme assay (substrate phosphorylation, SPA). Type of assay: biochemical. Conditions: in at least one experimental run; pIC50 = -log(IC50), IC50 in molar units; 10 nM activated AKT enzyme, 4 uM ATP; read-out: pIC50 against full length AKT1 (converted). The text has this: Cloning of Full-length Human (FL) AKT1:
Full-length human AKT1 gene was amplified by PCR from a plasmid containing myristylated-AKT1-ER (gift from Robert T. Abraham, Duke University under MTA, described in Klippel et al. in Molecular and Cellular Biology 1998 Volume 18 p. 5699) using the 5′ primer: SEQ.ID NO: 2, 5′ […] 3′ and the 3′ primer: SEQ.ID NO: 3, […] 3′. The 5′ primer included a BamHI site and the 3′ primer included an XhoI site for cloning purposes. The resultant PCR product was subcloned in pcDNA3 as a BamHI/XhoI fragment. A mutation in the sequence (TGC) coding for a Cysteine^25 was converted to the wild-type AKT1 sequence (CGC) coding for an Arginine^25 by site-directed mutagenesis using the QuikChange® Site Directed Mutagenesis Kit (Stratagene). […] For expression/purification purposes, AKT1 was isolated as a BamHI/XhoI fragment and cloned into the BamHI/XhoI sites of pFastbacHTb (Invitrogen).
Expression of FL Human AKT1:
Expression was done using the BAC-to-BAC Baculovirus Expression System from Invitrogen (catalog #10359-016). Briefly 1) the cDNA was transferred from the FastBac vector into bacmid DNA, 2) the bacmid DNA was isolated and used to transfect Sf9 insect cells, 3) the virus was produced in Sf9 cells, 4) T. ni cells were infected with this virus and sent for purification.
Purification of FL Human AKT1:
For the purification of full-length AKT1, 130 g sf9 cells (batch #41646WO2) were resuspended in lysis buffer (buffer A, 1 L, pH 7.5) containing 25 mM HEPES, 100 mM NaCl, and 20 mM imidazole. The cell lysis was carried out by Avestin (2 passes at 15K-20K psi). Cell debris was removed by centrifuging at 16K rpm for 1 hour and the supernatant was batch bound to 10 ml Nickel Sepharose HP beads at 4 C for over night. The beads were then transferred to column and the bound material was eluted with buffer B (25 mM HEPES, 100 mM NaCl, 300 mM imidazole, pH 7.5). AKT eluting fractions were pooled and diluted 3 fold using buffer C (25 mM HEPES, 5 mM DTT; pH 7.5). The sample was filtered and chromatographed over a 10 mL Q-HP column pre-equilibrated with buffer C at 2 mL/min.
The Q-HP column was washed with 3 column volume (CV) of buffer C, then step eluted with 5 CV 10% D, 5 CV 20% D, 5 CV 30% D, 5 CV 50% D and 5 CV of 100% D; where buffer D is 25 mM HEPES, 1000 mM NaCl, 5 mM DTT; pH 7.5. 5 mL fractions collected. AKT containing fractions were pooled and concentrated to 5 ml. The protein was next loaded to a 120 ml Superdex 75 sizing column that was pre-equilibrated with 25 mM HEPES, 200 mM NaCl, 5 mM DTT; pH 7.5. 2.5 mL fractions were collected.
AKT 1 eluting fractions were pooled, aliquoted (1 ml) and stored at −80 C. Mass spec and SDS-PAGE analysis were used to confirm purity and identity of the purified full-length AKT1.
Compounds of the present invention are tested for AKT 1, 2, and 3 protein serine kinase inhibitory activity in substrate phosphorylation assays. This assay examines the ability of small molecule organic compounds to inhibit the serine phosphorylation of a peptide substrate. The substrate phosphorylation assays use the catalytic domains of AKT 1, 2, or 3. AKT 1, 2 and 3 are also commercially available from Upstate USA, Inc. The method measures the ability of the isolated enzyme to catalyze the transfer of the gamma-phosphate from ATP onto the serine residue of a biotinylated synthetic peptide SEQ. ID NO: 5 (Biotin-ahx-ARKRERAYSFGHHA-amide). Substrate phosphorylation is detected by the following procedure: […]
Take `Cn1nccc1-c1c(Cl)sc(NC(=O)C(CN)c2ccccc2)c1Cl` (centres unmarked) [Example 1, 3-amino-N-[3,5-dichloro-4-(1-methyl-1H-pyrazol-5-yl)-2-thienyl]-2-phenylpropanamide]: the IC50 was 158 nM.

In the case of `Cn1ncc(Cl)c1-c1cc(NC(=O)[C@@H](CN)Cc2ccccc2)sc1Cl` [Example 5, (2R)-3-amino-N-[5-chloro-4-(4-chloro-1-methyl-1H-pyrazol-5-yl)-2-thienyl]-2-(phenylmethyl)propanamide], the IC50 was 10 nM.

For `Cn1ncc(Cl)c1-c1cc(NC(=O)[C@H](CN)Cc2ccc(F)c(F)c2)sc1Cl` [Example 7, (2S)-3-amino-N-[5-chloro-4-(4-chloro-1-methyl-1H-pyrazol-5-yl)-2-thienyl]-2-[(3,4-difluorophenyl)methyl]propanamide], the IC50 is 1.58 nM.

`Cn1ncc(Cl)c1-c1cc(NC(=O)[C@@H](CN)Cc2ccccc2F)sc1Cl` [Example 10, (2R)-3-amino-N-[5-chloro-4-(4-chloro-1-methyl-1H-pyrazol-5-yl)-2-thienyl]-2-[(2-fluorophenyl)methyl]propanamide]: the IC50 was 5.01 nM.

In the case of `Cn1ncc(Cl)c1-c1cc(NC(=O)[C@H](CN)Cc2cccc(F)c2)sc1Cl` [Example 13, (2S)-3-amino-N-[5-chloro-4-(4-chloro-1-methyl-1H-pyrazol-5-yl)-2-thienyl]-2-[(3-fluorophenyl)methyl]propanamide], the IC50 is 2.51 nM.

Values taken from patent US8592475B2, “Inhibitors of Akt activity” (GlaxoSmithKline LLC, priority 2008, dated 2013).
